The source of these data is patent US20250195671A1, “COVALENT ANESTHETIC-POLYMER CONJUGATES FOR PROLONGED LOCAL ANESTHESIA” (priority 2017, published 2025).

The subject of data set [1] is sciatic nerve and surrounding tissues. The conditions noted are these: rat, in vivo.
Data set [2] concerns sciatic nerve. To be noted: rat, in vivo.
The conditions of data set [3]: cited from earlier work.
The conditions of data set [4]: in vivo; cited from earlier work.
Data set [5] deals with rat sciatic nerve. The conditions noted are these: rat model; cited from earlier work.
Data set [6] concerns rat. The conditions noted are these: in vivo.
In data set [7] the test system is sciatic nerve.

Read-outs that look alike come from different tables or passages of the source.

For the compound `N=C1NC(O)[C@H]2[C@@H]3OC4(O)OC(C(O)[C@@]2(N1)[C@@H]4O)[C@]3(O)CO` (some centres unmarked) [TTX, Tetrodotoxin], in data set [1], the “Median inflammation score (range), Day 4” value is given as 0.5(0-1); the “Median inflammation score (range), Day 14” value is 0(0-0); the “Median myotoxicity score (range), Day 4” value is 0(0-0); the “Median myotoxicity score (range), Day 14” value was 0.5(0-1)^. Further, in data set [1], the “myotoxicity and inflammation, microscopic examination” value is “did not reveal significant myotoxicity and inflammation”. In data set [2], the “blockade, % of animals” value came out at 100%; the “nerve blockade, % of animals” value turned out to be 100%; the “successful block, % of animals” value is 100%.
Consider `COc1cc(CNC(=O)CCCC/C=C/C(C)C)ccc1O` [capsaicin, 8-Methyl-N-vanillyl-trans-6-nonenamide], for which the solubility result in data set [3] (alcohol, fats and oils) was “freely soluble”; in data set [3] (cold water) it was “insoluble”. In addition, the pharmacokinetic half-life result in data set [4] is given as “approximately 24 hours”. The “minimum effective dose to produce nerve blockade” value in data set [5] is recorded as “approximately 50 μg”.
Turning to poly(glycerol sebacate) [TgD8], in data set [6], the “Contralateral block (%)” value came out at 0% and the “Mortality (%)” value is recorded as 0%.
Turning to `O=C1OC2(c3ccc(O)cc3Oc3cc(O)ccc32)c2ccccc21` [fluorescein sodium], the “fluorescence in the nerve” value in data set [7] (0.25 mg in 0.5 mL of PBS, 1 and 4 hours) is on record as “No fluorescence was observed in the nerve”; in data set [7] (0.25 mg in 0.5 mL of PEG200, four hours after injection), “none”; in data set [7] (0.25 mg in 0.5 mL of PEG200, one hour after injection) it was “fluorescence was observed throughout the nerve”.
